For data set [1], the system named is plasma membranes of living Jurkat lymphocytes. The experiment in a line: Saturation binding of fluorescent probes to living Jurkat lymphocytes (flow cytometry). Particulars: for Bmax (×10^5, 16° C.) / Kd / Bmax (×10^5, 37° C.): media containing 10% FBS, free cholesterol (200 μM, 10% DMSO) as competitor; for binding to mammalian cells (affinity/efficacy, in words): high concentrations of serum (10%). On the set-up: species or system human. The protocol:
Jurkat lymphocytes (human acute leukemia, ATCC #TIB-152) were cultivated in Roswell Park Memorial Institute (RPMI) 1640 medium supplemented with Fetal Bovine Serum (FBS, 10%), penicillin (100 units/mL), and streptomycin (100 μg/mL) in a humidified 5% CO2 incubator at 37° C. Media used for cell culture and all wash steps contained antibiotics and 10% FBS unless otherwise noted.
(§1) Cells were suspended at 300,000 cells/mL in RPMI media containing 10% FBS. Ezetimibe (100 μM; diluted 1:1000 into media from a 100 mM stock in DMSO; 0.1% final DMSO concentration), free cholesterol (200 μM; diluted 1:10 into media from a 2 mM stock in DMSO; 10% final DMSO concentration to enhance cholesterol solubility) or vehicle control (DMSO) was added in competition experiments. Cell suspensions containing the competitor or vehicle control were prepared as 1 mL aliquots in 1.5 mL eppindorf tubes. Fluorescent probes were added at concentrations from 0 nM to 2500 nM (diluted 1:1000 into media from stocks in DMSO). Once the probe was added and well mixed, the samples were split into three tubes each containing 330 μL. Cells were incubated at 16° C. for 10 min or 37° C. for 5 minutes to limit endocytosis. After this incubation, the samples were washed once with RPMI 1640 containing 0.5% FBS (to minimize efflux of the probe from the cell surface) and propidium iodide (3 μM). Samples were immediately analyzed by flow cytometry or confocal laser-scanning microscopy.
Populations of 10,000 Jurkat cells were analyzed for each sample using an Accuri C6 flow cytometer equipped with 488 nm and 640 nm solid-state lasers. Live cells were gated using both forward scattering (FSC) and side scattering (SSC) dot plots to identify cellular physical properties of size and granularity and propidium iodide to identify cells with compromised membranes. The average cellular fluorescence upon excitation at 488 nm was plotted against probe concentration, and the data analyzed as total binding (no competitor added) and a linear non-specific binding component (with cholesterol or ezetimibe as a specific competitor) to calculate specific binding curves. Using GraphPad Prism 5.0 software, these curves were analyzed with a one site with hill slope binding model to determine the relative apparent Kd and Bmax values listed in Table 1 below.
Using free cholesterol (compound 1, 200 μM, 10% DMSO) as a competitor, we quantified the relative affinities (Kd, app) and efficacies (Bmax) of compounds 4-12 in saturation binding experiments at both 16° C. (to limit endocytosis) and 37° C. (FIG. 4 and Table 1). These experiments confirmed the combined importance the N-alkyl substituent of cholesterylamine, an anionic functional group, and a spacer residue such as β-alanine to engender high affinity binding to cell surfaces and facilitate subsequent endocytosis.
Background: A flow cytometer gives signals particle by particle.

Another data set has as its system Jurkat lymphocytes. Description: Confocal laser scanning microscopy of living Jurkat lymphocytes treated with fluorescent probes. Particulars: 2 μM, 10% serum. The data set is classed as cell-based, human. The protocol: FIG. 3 includes micrographs showing differential interference contrast (DIC) and confocal laser scanning microscopy of living Jurkat lymphocytes in media containing 10% serum treated at 37° C. with fluorescent compound 4 (Panels A-E), compound 6 (F-G), and compound 12 (H-I) for 5 min or 1 h (2 μM). In C and D, ezetimibe (compound 3, 100 μM in 0.1% DMSO) and cholesterol (compound 1, 200 μM in 10% DMSO) were included as competitors to block uptake via cell surface receptors.
An inverted Leica TCS SPE confocal laser-scanning microscope fitted with a Leica 63× oil-immersion objective was employed for imaging. Fluorescent probes were excited with a 488 nm solid-state laser and emitted photons were collected from 495-600 nm. Propidium iodide, used to counterstain dead cells red fluorescent, was excited with a 532 nm solid-state laser and emitted photons were collected from 650-800 nm. To image living cells, 50 μL of cells in media was pipetted to form a small droplet in the center of a coverslip fitted with a press-to-seal silicone isolator (Invitrogen). A microscope slide was added to the top of the coverslip to create a column of media containing living cells. To allow accurate comparisons of differences in cellular fluorescence, laser power and PMT gain settings were identical for all samples.
as §1, with “Once the probe was added and well mixed, the samples were split into three tubes each containing 330 μL. Cells were incubated at 16° C. for 10 min or 37° C. for 5 minutes to limit endocytosis. After this incubation, the samples were washed once with RPMI 1640 containing 0.5% FBS (to minimize efflux of the probe from the cell surface) and propidium iodide (3 μM).” left out

Where [2] appears, read: 16° C., 10 min, read-out: Kd, app (nM, 16° C.).
Setting [3] is: 37° C., 5 min, read-out: Kd, app (nM, 37° C.).

SMILES strings stand for the structures. Where two headings read alike, the source gives them in different places.

Regarding `CC[C@H](CC[C@@H](C)[C@H]1CC[C@H]2[C@@H]3CC=C4C[C@@H](NCCCNC(=O)CCNC(=O)[C@H](CCC(=O)O)NC(=O)c5ccc(-c6c7cc(F)c(=O)cc-7oc7cc(O)c(F)cc67)c(C)c5)CC[C@]4(C)[C@H]3CC[C@]12C)C(C)C` [compound 8, (4S)-5-{[3-({3-[3β-Sitost-5-en-3-ylamino]propyl}amino)-3-oxopropyl]amino}-4-{[4-(2,7-difluoro-6-hydroxy-3-oxo-3H-xanthen-9-yl)-3-methylbenzoyl]amino}-5-oxopentanoic acid], the “Bmax (×10^5, 16° C.)” value in data set [1] (16° C., 10 min) is on record as 0.73 ± 0.03 ×10^5. Besides, the Kd came out at 286 ± 27 nM in data set [1] (setting [2]) and 435 ± 221 nM in data set [1] (setting [3]). Besides, in data set [1] (37° C., 5 min), the “Bmax (×10^5, 37° C.)” value was 1.3 ± 0.29 ×10^5.
As to `Cc1cc(C(=O)N[C@@H](CCC(=O)O)C(=O)NCCC(=O)NCCCO[C@H]2CC[C@@]3(C)C(=CC[C@H]4[C@@H]5CC[C@H]([C@H](C)CCCC(C)C)[C@@]5(C)CC[C@@H]43)C2)ccc1-c1c2cc(F)c(=O)cc-2oc2cc(O)c(F)cc12` [compound 9, (4S)-5-{[3-({3-[3β-Cholest-5-en-3-yloxy]propyl}amino)-3-oxopropyl]amino}-4-{[4-(2,7-difluoro-6-hydroxy-3-oxo-3H-xanthen-9-yl)-3-methylbenzoyl]amino}-5-oxopentanoic acid], the melting point fell in the range of 192 to 194 °C. In data set [1] (16° C., 10 min), the “Bmax (×10^5, 16° C.)” value is listed as 1.68 ± 0.26 ×10^5. In addition, in data set [1] (setting [2]), the Kd is 954 ± 285 nM.
As to `Cc1cc(C(=O)N[C@@H](CCC(=O)O)C(=O)NCCC(=O)NCCC(=O)OC2CC[C@@]3(C)C(=CC[C@H]4[C@@H]5CC[C@H]([C@H](C)CCCC(C)C)[C@@]5(C)CC[C@@H]43)C2)ccc1-c1c2cc(F)c(=O)cc-2oc2cc(O)c(F)cc12` (stereo partly drawn) [compound 11, (4S)-4-(4-(2,7-difluoro-6-hydroxy-3-oxo-3H-xanthen-9-yl)-3-methylbenzamido)-5-((3-((3-{[3-cholester-3-yl]oxy}3-oxopropyl)amino)-3-oxopropyl)amino)-5-oxopentanoic acid], the “Bmax (×10^5, 16° C.)” value in data set [1] (16° C., 10 min) is reported as “NC^b (Not calculated due to low efficacy (Bmax<0.4×105))”. The “Bmax (×10^5, 37° C.)” value in data set [1] (37° C., 5 min) is “NC^b (Not calculated due to low efficacy (Bmax<0.4×105))”.
In turn, `Cc1cc(C(=O)NCC(=O)NCCC(=O)NCCCN[C@H]2CC[C@@]3(C)C(=CC[C@H]4[C@@H]5CC[C@H]([C@H](C)CCCC(C)C)[C@@]5(C)CC[C@@H]43)C2)ccc1-c1c2cc(F)c(=O)cc-2oc2cc(O)c(F)cc12` [compound 6, N-(2-{[3-({3-[3β-Cholest-5-en-3-ylamino]propyl}amino)-3-oxopropyl]amino}-2-oxoethyl)-4-(2,7-difluoro-6-hydroxy-3-oxo-3H-xanthen-9-yl)-3-methylbenzamide] gave a melting point of 200 to 203 °C. In addition, in data set [1] (37° C., 5 min), the “Bmax (×10^5, 37° C.)” value is on record as “NC^b (Not calculated due to low efficacy (Bmax<0.4×105))”.
On to `Cc1cc(C(=O)N[C@@H](CCC(=O)O)C(=O)NCC(=O)NCCNC(=O)OC2CC[C@@]3(C)C(=CC[C@H]4[C@@H]5CC[C@H]([C@H](C)CCCC(C)C)[C@@]5(C)CC[C@@H]43)C2)ccc1-c1c2cc(F)c(=O)cc-2oc2cc(O)c(F)cc12` (stereo partly drawn) [compound 12, (4S)-4-(4-(2,7-difluoro-6-hydroxy-3-oxo-3H-xanthen-9-yl)-3-methylbenzamido)-5-(3-((3-((({[3-cholester-3-y]oxy}carbonyl)amino)ethyl)amino)-2-oxoethyl)amino)-5-oxopentanoic acid], for which the “Bmax (×10^5, 16° C.)” value in data set [1] (16° C., 10 min) is recorded as “NC^b (Not calculated due to low efficacy (Bmax<0.4×105))”. Also, the “Bmax (×10^5, 37° C.)” value in data set [1] (37° C., 5 min) is “NC^b (Not calculated due to low efficacy (Bmax<0.4×105))”. In addition, the “cellular binding and cellular uptake compared with compound 4” value with Jurkat lymphocytes (5 min or 1 h, 37° C.) was “substantially lower cellular binding and cellular uptake compared with compound 4”.
In turn, `Cc1cc(C(=O)N[C@@H](CCC(=O)O)C(=O)N[C@@H](CCC(=O)O)C(=O)NCCCN[C@H]2CC[C@@]3(C)C(=CC[C@H]4[C@@H]5CC[C@H]([C@H](C)CCCC(C)C)[C@@]5(C)CC[C@@H]43)C2)ccc1-c1c2cc(F)c(=O)cc-2oc2cc(O)c(F)cc12` [compound 7, (4S)-5-(((2S)-4-carboxy-1-((3-[3β-cholest-5-en-3-ylamino]propyl)amino)-1-oxobutan-2-yl)amino)-4-(4-(2,7-difluoro-6-hydroxy-3-oxo-3H-xanthen-9-yl)-3-methylbenzamido)-5-oxopentanoic acid] yielded a melting point of 175 to 178 °C. The “Bmax (×10^5, 37° C.)” value in data set [1] (37° C., 5 min) is 3.2 ± 1.3 ×10^5. Also, the Kd in data set [1] (setting [3]) was 1540 ± 1140 nM.
As to `Cc1cc(C(=O)N[C@@H](CCC(=O)O)C(=O)NCCC(=O)NCCCN[C@H]2CC[C@@]3(C)C(=CC[C@H]4[C@@H]5CC[C@H]([C@H](C)CCCC(C)C)[C@@]5(C)CC[C@@H]43)C2)ccc1-c1c2cc(F)c(=O)cc-2oc2cc(O)c(F)cc12` [compound 4, (4S)-5-{[3-({3-[3β-Cholest-5-en-3-ylamino]propyl}amino)-3-oxopropyl]amino}-4-{[4-(2,7-difluoro-6-hydroxy-3-oxo-3H-xanthen-9-yl)-3-methylbenzoyl]amino}-5-oxopentanoic acid], the “Bmax (×10^5, 16° C.)” value in data set [1] (16° C., 10 min) is 2.31 ± 0.14 ×10^5. Also, the values for the Kd in data set [1] (setting [2]) and in data set [1] (setting [3]) were 403 ± 49 nM and 344 ± 32 nM, respectively. The “Bmax (×10^5, 37° C.)” value in data set [1] (37° C., 5 min) was 2.54 ± 0.12 ×10^5. In addition, the “binding to mammalian cells (affinity/efficacy, in words)” value in data set [1] was “high affinity/efficacy”. Also, the “fluorescent staining of cells” value in the data set on Jurkat lymphocytes (5 minutes at 37° C.) is given as “robust fluorescent staining of cellular plasma membranes”. In the data set with Jurkat lymphocytes (after 1 hour, 37° C.), the “cellular binding, uptake and localization” value was “enhanced cellular binding, uptake of the probe, and localization of compound 4 in transferrin-positive early/recycling endosomes”.
As to `Cc1cc(C(=O)N[C@@H](CCC(=O)O)C(=O)N[C@@H](CCC(=O)O)C(=O)NCCC(=O)NCCCN[C@H]2CC[C@@]3(C)C(=CC[C@H]4[C@@H]5CC[C@H]([C@H](C)CCCC(C)C)[C@@]5(C)CC[C@@H]43)C2)ccc1-c1c2cc(F)c(=O)cc-2oc2cc(O)c(F)cc12` [compound 5, (4S)-5-{[(1S)-3-Carboxy-1-({[3-({3-[3β-cholest-5-en-3-ylamino]propyl}amino)-3-oxopropyl]amino}carbonyl)propyl]amino}-4-{[4-(2,7-difluoro-6-hydroxy-3-oxo-3H-xanthen-9-yl)-3-methylbenzoyl]amino}-5-oxopentanoic acid], in data set [1] (16° C., 10 min), the “Bmax (×10^5, 16° C.)” value was 3.93 ± 0.64 ×10^5. The results for the Kd in data set [1] (setting [2]) and in data set [1] (setting [3]) were 767 ± 244 nM and 449 ± 74 nM, respectively. Moreover, in data set [1] (37° C., 5 min), the “Bmax (×10^5, 37° C.)” value is on record as 3.01 ± 0.26 ×10^5. Further, the “binding to mammalian cells (affinity/efficacy, in words)” value in data set [1] is listed as “high affinity/efficacy”.
Take `Cc1cc(C(=O)N[C@@H](CCC(=O)O)C(=O)NCCC(=O)NCCC(=O)N[C@H]2CC[C@@]3(C)C(=CC[C@H]4[C@@H]5CC[C@H]([C@H](C)CCCC(C)C)[C@@]5(C)CC[C@@H]43)C2)ccc1-c1c2cc(F)c(=O)cc-2oc2cc(O)c(F)cc12` [compound 10, (4S)-4-(4-(2,7-difluoro-6-hydroxy-3-oxo-3H-xanthen-9-yl)-3-methylbenzamido)-5-((3-((3-{[3β-cholest-5-en-3-yl]amino}-3-oxopropyl)amino)-3-oxopropyl)amino)-5-oxopentanoic acid]: the melting point is 192 to 194 °C. Besides, the “Bmax (×10^5, 16° C.)” value in data set [1] (16° C., 10 min) is reported as 1.86 ± 0.39 ×10^5. Also, the Kd in data set [1] (setting [2]) was 786 ± 358 nM. In addition, the “Bmax (×10^5, 37° C.)” value in data set [1] (37° C., 5 min) is reported as 2.2 ± 0.30 ×10^5. Moreover, in data set [1] (setting [3]), the Kd stood at 639 ± 190 nM.

The term melting point denotes the temperature of the solid-liquid transition.

Source of the values: patent US8637468B2, “Synthetic cholesterylamine-linker derivatives for agent delivery into cells” (The University of Kansas, priority 2009, dated 2014).
